Laboratory results reported in patent US8008354B2, “Death receptor sensitizing compounds and methods of use therefor” (Burnham Institute for Medical Research, priority 2006, dated 2011).
“Also recorded” adds a separate entry of the source. Counter-ions that a name gives are not always drawn.

Experiments:
FLIP = FLIP protein levels by SDS-PAGE/immunoblotting; type: cell-based, human
Protocol: (§1) FIG. 7. Effect of FAS-sensitizing compounds on levels of FLIP protein and DISC activation. (A) PPC-1 cells (2×10^5) were seeded into 35 mm plates and treated the next day with various FAS-sensitizing compounds (30 μM), with (+) or without (−) CH-11 antibody (100 ng/mL). As a positive control, cells were treated with CDDO (5 μM). Cell lysates were prepared 24 hours later, normalized for total protein content, and analyzed by SDS-PAGE/immunoblotting using antibodies specific for FLIP or a-tubulin. (B) PPC-1, OVCAR-3, T47D, MDA-MB-468 and DU 145 cells (2×10^5) were seeded into 35 mm plates and treated the next day with 5809354 (40 μM). Cell lysates were prepared 24 hours after treatment, normalized for total protein and analyzed by SDS-PAGE/immunoblotting using antibodies specific for FLIP or β-actin. (C) PPC-1, OVCAR-3, T47D, and DU 145 cells (2×10^5) were seeded into 35 mm plates and treated the next day with 5809354 (40 μM) (black bars) or buffer control (white bars). mRNA was extracted 24 hours after treatment. Levels of the long isoform of FLIP and GAPDH were detected by quantitative RT-PCR. Levels of FLIP were normalized for GAPDH expression and expressed as a mean fold change+SD over buffer treated cells. (D) PPC-1 cells (2×10^5) were seeded into 35 mm plates and treated the next day with various FAS-sensitizing compounds (30 μM) with (+) or without (−) CH-11 (100 ng/mL). Cell lysates were prepared 24 hours after treatment, normalized for total protein, and analyzed by SDS-PAGE/immunoblotting using antibodies specific for caspase-8 and β-actin.
FIG. 13. Small molecule down-regulation of FLIP sensitizes prostate cancer cells to anoikis. (A) PPC-1 cells were seeded overnight in adherent conditions and then treated with increasing concentrations of 5809354 for 16 hours. After incubation, cells were harvested. Total cellular RNA was extracted and mRNA levels of the long isoform of FLIP (FLIPL), the short isoform of FLIP (FLIPS), or rRNA levels of 18S were detected by real-time RT-PCR. Data were normalized using the ΔΔCT method and expressed as the mean±SEM percent of […] expression relative to untreated controls. (B) PPC-1 cells were cultured and treated as in panel A. Total cellular protein was isolated and analyzed by SDS-PAGE immunoblotting using anti-FLIP and anti-Actin antibodies. (C) PPC-1 cells were seeded overnight in adherent conditions and then exposed to increasing concentrations of 5809354 in the presence or absence of Fas-activating antibody (CH-11, 100 ng/mL). Thirty hours after incubation, cell viability was determined using the MTS assay. Data represents the mean±SEM of percent of viable cells. (D) PPC-1 cells were seeded overnight in adherent or suspension conditions and then treated with increasing concentrations of 5809354 for 30 hours. After incubation, apoptosis was measured by flow cytometry to detect cell surface annexin V expression and PI. Data represents the mean±SEM of percent of viable cells. (E) Cells were harvested, fixed, stained with DAPI, and nuclear morphology analyzed by fluorescence microscopy. Arrowheads refer to fragmented nuclei indicative of apoptosis. […] Thirty hours after incubation, cells were harvested and equal volumes plated in a colony formation assay. One week later, cells were stained with methylene blue and the number of colonies counted. Data represents the mean ±SEM percent of colonies relative to untreated controls.
Immunoblot analysis. Protein extracts were obtained by washing cells with phosphate-buffered saline (PBS) [pH 7.4] and suspending the cells in lysis buffer [10 mM Tris (pH 7.4), 150 mM NaCl, 0.1% Triton X-100, 0.5% sodium deoxycholate, and 5 mM EDTA] containing protease inhibitors (Complete tablets; Roche, Indianapolis, Ind.). Immunoblot assays were performed as described in Carter et al. (2005). […]

FLIP mRNA = FLIP mRNA by quantitative RT-PCR; type: cell-based, human; settings: for expression of FLIP mRNA: Example 1, responding and non-responding cell lines, 24 hours, long isoform normalized for GAPDH
Protocol: as §1
FIG. 13. Small molecule down-regulation of FLIP sensitizes prostate cancer cells to anoikis. (A) PPC-1 cells were seeded overnight in adherent conditions and then treated with increasing concentrations of 5809354 for 16 hours. After incubation, cells were harvested. Total cellular RNA was extracted and mRNA levels of the long isoform of FLIP (FLIPL), the short isoform of FLIP (FLIPS), or rRNA levels of 18S were detected by real-time RT-PCR. Data were normalized using the ΔΔCT method and expressed as the mean±SEM percent of […] expression relative to untreated controls. (B) PPC-1 cells were cultured and treated as in panel A. Total cellular protein was isolated and analyzed by SDS-PAGE immunoblotting using anti-FLIP and anti-Actin antibodies. […] Thirty hours after incubation, cell viability was determined using the MTS assay. […] After incubation, apoptosis was measured by flow cytometry to detect cell surface annexin V expression and PI. […] (E) Cells were harvested, fixed, stained with DAPI, and nuclear morphology analyzed by fluorescence microscopy. […] One week later, cells were stained with methylene blue and the number of colonies counted. […]
Quantitative RT-PCR. […]

[1] = PPC-1 cells, 30 μM, with or without CH-11, 24 hours, long isoform
[2] = Example 2, PPC-1 cells, increasing concentrations, 16 hours

Molecule	levels of FLIP protein (FLIP; [1])	expression of FLIP mRNA (FLIP mRNA)	FLIP protein expression (FLIP; [2])	levels of FLIP protein (FLIP; non-responding cell lines DU145 and MDA-MB-468, 40 μM, 24 hours)	FLIP mRNA expression (FLIP mRNA; [2])	levels of FLIP protein (FLIP; PPC-1 cells, 30 μM, with or without CH-11, 24 hours, long isoform, hydrobromide)
CC(=O)CC(=O)Nc1ccc(Cl)c(C(F)(F)F)c1 [compound 6094911, N-[4-chloro-3-(trifluoromethyl)phenyl]-3-oxobutanamide]	did not alter levels of FLIP protein	did not reduce FLIP mRNA				
4-(4-chloro-2-methylphenoxy)-N-hydroxybutanamide [compound 5809354]	decreased levels of FLIP protein	reduced expression of FLIP mRNA	concentration-dependent decrease	levels of FLIP were decreased	concentration-dependent decrease	
CCn1c(=N)n(CC(=O)c2cc(C(C)(C)C)c(O)c(C(C)(C)C)c2)c2ccccc21 [compound 5569100, 1-(3,5-di-tert-butyl-4-hydroxyphenyl)-2-(3-ethyl-2-imino-2,3-dihydro-1H-benzo[d]imidazol-1-yl)ethanone hydrobromide]		did not reduce FLIP mRNA				decreased levels of FLIP protein; also recorded: reduced FLIP expression
